According to patent US20060188913A1, “Methods and products for enhancing immune responses using imidazoquinoline compounds” (University of Iowa Research Foundation, priority 2001, published 2006):

Assays:
[1] = target: T1, hTLR7 (Homo sapiens, UniProt Q9NYK1); test: IL-8 production in 293 fibroblasts transiently expressing hTLR7; type: cell-based; conditions: CpG-ODN 2 μM, LPS 100 ng/ml
T1 construct: plasmids (pcDNA3.1 constructs) coding for full length hTLR2, hTLR7, hTLR8 and hTLR9; expressed in transfected cells; host or cells: 293T cells
T1 sequence (Q9NYK1 27-1049): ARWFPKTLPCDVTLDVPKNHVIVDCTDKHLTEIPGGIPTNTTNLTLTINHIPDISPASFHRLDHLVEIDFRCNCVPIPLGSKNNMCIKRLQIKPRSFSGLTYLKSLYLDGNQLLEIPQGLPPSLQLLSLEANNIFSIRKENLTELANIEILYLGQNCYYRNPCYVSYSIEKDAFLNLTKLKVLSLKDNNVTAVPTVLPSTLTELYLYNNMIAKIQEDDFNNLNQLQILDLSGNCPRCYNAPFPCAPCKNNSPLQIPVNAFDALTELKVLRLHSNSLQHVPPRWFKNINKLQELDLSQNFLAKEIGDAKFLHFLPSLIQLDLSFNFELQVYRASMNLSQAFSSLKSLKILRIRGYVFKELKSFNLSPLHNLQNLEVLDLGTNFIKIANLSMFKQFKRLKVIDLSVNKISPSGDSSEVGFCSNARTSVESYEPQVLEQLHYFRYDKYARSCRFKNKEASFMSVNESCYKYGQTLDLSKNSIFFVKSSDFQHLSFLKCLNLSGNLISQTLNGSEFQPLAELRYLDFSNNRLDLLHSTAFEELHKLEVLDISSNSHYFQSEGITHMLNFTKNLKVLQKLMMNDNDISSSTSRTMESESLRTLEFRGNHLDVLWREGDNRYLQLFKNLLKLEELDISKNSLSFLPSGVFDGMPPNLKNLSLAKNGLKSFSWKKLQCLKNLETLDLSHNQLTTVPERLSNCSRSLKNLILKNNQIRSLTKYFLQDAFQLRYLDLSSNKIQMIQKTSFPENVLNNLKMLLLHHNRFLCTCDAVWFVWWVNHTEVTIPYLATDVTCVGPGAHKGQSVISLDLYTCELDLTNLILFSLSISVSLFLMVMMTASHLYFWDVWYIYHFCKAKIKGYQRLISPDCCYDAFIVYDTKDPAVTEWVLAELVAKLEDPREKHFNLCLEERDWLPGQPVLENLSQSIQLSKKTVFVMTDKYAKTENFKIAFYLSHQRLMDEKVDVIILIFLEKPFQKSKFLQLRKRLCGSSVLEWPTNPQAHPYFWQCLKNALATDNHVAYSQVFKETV
Description: (§1) The cloned human TLR7 and human TLR8 cDNA were cloned into the expression vector pCDNA3. 1 (−) from Invitrogen using the NotI site. Utilizing a “gain of function” assay, hTLR7 and hTLR8 expression vectors were transiently expressed in human 293 fibroblasts (ATCC, CRL-1573) using the calcium phosphate method. Activation was monitored by IL-8 production after stimulus with CpG-ODN (2006 or 1668, 2 μM) or LPS (100 ng/ml).

[2] = target: T2, hTLR8 (Homo sapiens, UniProt Q9NR97); test: IL-8 production in 293 fibroblasts transiently expressing hTLR8; type: cell-based; conditions: CpG-ODN 2 μM, LPS 100 ng/ml
T2 construct: plasmids (pcDNA3.1 constructs) coding for full length hTLR2, hTLR7, hTLR8 and hTLR9; expressed in transfected cells; host or cells: 293T cells
T2 sequence (Q9NR97 27-1041): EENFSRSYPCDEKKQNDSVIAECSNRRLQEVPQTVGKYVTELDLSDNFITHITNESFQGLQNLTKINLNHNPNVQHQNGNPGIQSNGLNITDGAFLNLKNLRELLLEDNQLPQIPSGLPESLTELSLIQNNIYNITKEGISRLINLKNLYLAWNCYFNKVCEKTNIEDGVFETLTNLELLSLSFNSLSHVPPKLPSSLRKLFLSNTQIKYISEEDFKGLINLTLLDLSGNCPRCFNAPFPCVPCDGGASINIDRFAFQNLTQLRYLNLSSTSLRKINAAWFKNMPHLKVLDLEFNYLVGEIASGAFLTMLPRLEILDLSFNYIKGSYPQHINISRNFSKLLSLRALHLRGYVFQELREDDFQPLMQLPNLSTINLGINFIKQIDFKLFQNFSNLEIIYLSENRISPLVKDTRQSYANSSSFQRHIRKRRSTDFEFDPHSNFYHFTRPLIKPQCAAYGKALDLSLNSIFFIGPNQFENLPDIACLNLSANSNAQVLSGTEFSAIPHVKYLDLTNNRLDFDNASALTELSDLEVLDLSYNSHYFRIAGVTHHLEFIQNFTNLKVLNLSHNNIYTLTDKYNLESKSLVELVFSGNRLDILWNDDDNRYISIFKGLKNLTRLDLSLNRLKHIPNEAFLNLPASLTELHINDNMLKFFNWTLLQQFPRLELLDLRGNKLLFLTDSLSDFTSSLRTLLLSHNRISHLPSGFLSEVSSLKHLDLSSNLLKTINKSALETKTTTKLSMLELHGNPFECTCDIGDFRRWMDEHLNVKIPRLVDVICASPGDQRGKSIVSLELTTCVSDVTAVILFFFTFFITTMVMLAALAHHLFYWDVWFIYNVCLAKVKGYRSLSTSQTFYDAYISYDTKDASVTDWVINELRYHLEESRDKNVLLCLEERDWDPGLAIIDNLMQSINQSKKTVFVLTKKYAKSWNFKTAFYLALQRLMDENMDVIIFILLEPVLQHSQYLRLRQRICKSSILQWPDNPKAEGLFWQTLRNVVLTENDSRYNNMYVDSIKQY
Description: as §1

## CpG ODN 2006
[1]
  activation monitored by IL-8 production: None of the stimuli used activated
[2]
  activation monitored by IL-8 production: None of the stimuli used activated
